# Patent publication US8680059B2, “Oligopeptide acetate and formulations thereof” (Biotempt B.V., priority 1998, dated 2014)
# Key:
# [1] = test system: mice, 25 minutes renal ischemia/reperfusion; assay: Mouse renal ischemia reperfusion test (mortality, BUN/serum urea); assay type: in vivo; set-up: BUN, mean / Urea level: unit not given here; conditions: for BUN, mean: 5 mg/kg i.v.
# Protocol: SEQ ID NO:2 was tested and compared with PBS (control) in a double blind animal study for the peptide's relative ability to aid recovery in a mouse renal ischemia reperfusion test. In this test, the mice were anesthetized, and one kidney from each mouse was removed. The other kidney was tied off for 25 minutes, and the serum urea levels were allowed to increase. Both before and after tying off, the peptide was administered to thirty (30) different mice (5 mg oligopeptide/kg body mass intravenously), after which, the mortality of the mice was determined for each oligopeptide as well as was the BUN concentration at two hours, 24 hours and 72 hours.
# Under inhalation anesthesia, the left kidney with its artery and vein was isolated and occluded for 25 minutes using a microvascular clamp. During surgery animals were placed on a heating path to maintain body temperature at 37° C. Five minutes before placing the clamp, and 5 minutes before releasing the clamp, 5 mg/kg of peptide, dissolved in 0.1 mL of sterile saline, was administered intravenously. After reperfusion of the left kidney the right kidney was removed. Kidney function was assessed by measuring blood urea nitrogen before clamping, and at 2, 24, and 72 hours after reperfusion.
# To determine dose-response relationships SEQ ID NO:2, was tested in a dose-response manner in the mice test as described above. Peptides were tested at 0.3, 1, 3, 10 and 30 mg/kg dosages given as described in Example I. Serum urea levels are presented in Table 3.
# [2] = test system: RAW 264.7 murine macrophage cell line; assay: Nitrite (NO) production in LPS-stimulated RAW 264.7 macrophages; assay type: cell-based; conditions: co-stimulated with LPS 10 microg/ml, peptide even at 1 pg/ml, 24 hours
# Protocol: Cell culture. The RAW 264.7 murine macrophage cell line, obtained from American Type Culture Collection (Manassas, Va., USA), were cultured at 37° C. in 5% CO2 using DMEM containing 10% fetal calf serum (FCS), 50 U/ml penicillin, 50 μg/ml streptomycin, […] Na-pyruvate, 2 mM glutamine and 50 μM 2-mercaptoethanol (Bio Whittaker, Europe). The medium was changed every 2 days.
# Nitrite measurements. Nitrite production was measured in the RAW 264.7 macrophage supernatants. The cells (7.5×10^5/ml) were cultured in 48-well plates in […] of culture medium. The cells were stimulated with LPS (10 microg/ml) and/or peptide (1 pg/ml, 1 ng/ml, 1 μg/ml) for 24 hours, then the culture media were collected. Nitrite was measured by adding 100 microl of Griess reagent (Sigma) to 100 microl samples of culture medium. The OD540 was measured using a microplate reader, and the nitrite concentration was calculated by comparison with the OD540 produced using standard solutions of sodium nitrite in the culture medium.
substance,measurement,setting,value
"AQGV [tetrapeptide derived from human chorionic gonadotropin, alanine replacement of LQGV]",Mortality in dose-response experiment,"[1]; 0.3 mg/kg, 24 h",0-9
same,Urea level,"[1]; 0.3 mg/kg, 24 h",62.4
same,Mortality in dose-response experiment,"[1]; 0.3 mg/kg, 72 h",2-10
same,Urea level,"[1]; 0.3 mg/kg, 72 h",86.7
same,Mortality in dose-response experiment,"[1]; 1.0 mg/kg, 24 h",0-10
same,Urea level,"[1]; 1.0 mg/kg, 24 h",50.0
same,Mortality in dose-response experiment,"[1]; 1.0 mg/kg, 72 h",1-8
same,Urea level,"[1]; 1.0 mg/kg, 72 h",52.6
same,Mortality in dose-response experiment,"[1]; 3.0 mg/kg, 24 h",1-10
same,Urea level,"[1]; 3.0 mg/kg, 24 h",37.4
same,Mortality in dose-response experiment,"[1]; 3.0 mg/kg, 72 h",0-10
same,Urea level,"[1]; 3.0 mg/kg, 72 h",19.6
same,mortality at 72 hours post-reperfusion,"[1]; 5 mg/kg i.v. before and after clamping, dead/total",0/10
same,Mortality in dose-response experiment,"[1]; 10.0 mg/kg, 24 h",0-10
same,Urea level,"[1]; 10.0 mg/kg, 24 h",41.2
same,Mortality in dose-response experiment,"[1]; 10.0 mg/kg, 72 h",0-8
same,Urea level,"[1]; 10.0 mg/kg, 72 h",37.1
same,Mortality in dose-response experiment,"[1]; 30.0 mg/kg, 24 h",0-8
same,Urea level,"[1]; 30.0 mg/kg, 24 h",47.8
same,Mortality in dose-response experiment,"[1]; 30.0 mg/kg, 72 h",3-10
same,Urea level,"[1]; 30.0 mg/kg, 72 h",38.0
same,"BUN, mean",[1]; 2 hr after reperfusion,16.62
same,"BUN, mean",[1]; 24 hr after reperfusion,26.36
same,"BUN, mean",[1]; 72 hr after reperfusion,22.31
same,"BUN, mean",[1]; t = 0 hr (before clamping),9.713
same,NO production,[2],inhibited the production of NO
